Where two headings read alike, the source gives them in different places.
Experiments:
[1] = molecular target: human full-length recombinant HPK1 (Homo sapiens (Human), UniProt Q92918); assay: HPK1 biochemical enzyme assay, microfluidic mobility shift assay (MSA); conditions: read-out: HPK1 Enzyme Assay_Ki
Method: HPK1 enzyme inhibition was measured using a microfluidic mobility shift assay (MSA). […] The reactions were conducted for 60 min at 37° C., stopped by the addition of 50 μL of 0.015 M EDTA, pH 8, and the extent of reactions (˜15-20% conversion with no inhibitor) was determined after electrophoretic separation of the fluorescently labeled peptide substrate and phosphorylated product on an LabChip EZ Reader II (PerkinElmer, Inc., Waltham, Mass.). […]

[2] = system: phospho-SLP-76 (Ser376) in Jurkat cells; assay: Phospho-SLP-76 (Ser376) Homogeneous Time Resolved Fluorescence (HTRF) assay in Jurkat cells; assay type: cell-based; conditions: Homo sapiens, read-out: SLP76 Assay_IC50
Method: Jurkat cells were seeded at 90,000 cells/well in 90 uL of RPMI1640 growth medium containing 10% FBS and incubated at 37° C. with 5% CO2 overnight. The following day, compounds were serially diluted from a 10 mM top dose for an 11-point 3 fold dilution curve in DMSO. Compounds were intermediately diluted 1:100 into growth media prior to diluting 1:10 on cells for final concentration 10 μM to 0.1 nM in 0.1% DMSO. After 30 minutes pre-treatment with compounds, the cells were stimulated using 200 μg/mL of F(ab)2 complexed anti-CD3 (clone UCTH1) for 15 min at 37° C. with 5% CO2. Stimulation was stopped with ice cold PBS and cells were harvested by centrifugation before lysis in Cisbio lysis buffer (Cisbio, Bedford, Mass.). Lysates were transferred to white, low-volume plates containing anti-phospho-SLP-76-Cryptate plus anti-phospho-SLP-76-d2 HTRF antibodies and incubated overnight at room temperature protected from light according to the manufacturer's protocol (Cisbio, Bedford, Mass.). HTRF was measured on a Perkin Elmer Envision and IC50 values were calculated by concentration-response curve fitting utilizing four-parameter nonlinear regression analyses.

[3] = mobility shift assay, 75 μM ATP, Morrison equation, tight-binding competitive inhibition
[4] = 30 min pre-treatment, anti-CD3 stimulation 15 min, HTRF
[5] = Phospho-SLP-76 (Ser376) HTRF, anti-CD3 stimulation

Sequence of human full-length recombinant HPK1 (Q92918 whole entry): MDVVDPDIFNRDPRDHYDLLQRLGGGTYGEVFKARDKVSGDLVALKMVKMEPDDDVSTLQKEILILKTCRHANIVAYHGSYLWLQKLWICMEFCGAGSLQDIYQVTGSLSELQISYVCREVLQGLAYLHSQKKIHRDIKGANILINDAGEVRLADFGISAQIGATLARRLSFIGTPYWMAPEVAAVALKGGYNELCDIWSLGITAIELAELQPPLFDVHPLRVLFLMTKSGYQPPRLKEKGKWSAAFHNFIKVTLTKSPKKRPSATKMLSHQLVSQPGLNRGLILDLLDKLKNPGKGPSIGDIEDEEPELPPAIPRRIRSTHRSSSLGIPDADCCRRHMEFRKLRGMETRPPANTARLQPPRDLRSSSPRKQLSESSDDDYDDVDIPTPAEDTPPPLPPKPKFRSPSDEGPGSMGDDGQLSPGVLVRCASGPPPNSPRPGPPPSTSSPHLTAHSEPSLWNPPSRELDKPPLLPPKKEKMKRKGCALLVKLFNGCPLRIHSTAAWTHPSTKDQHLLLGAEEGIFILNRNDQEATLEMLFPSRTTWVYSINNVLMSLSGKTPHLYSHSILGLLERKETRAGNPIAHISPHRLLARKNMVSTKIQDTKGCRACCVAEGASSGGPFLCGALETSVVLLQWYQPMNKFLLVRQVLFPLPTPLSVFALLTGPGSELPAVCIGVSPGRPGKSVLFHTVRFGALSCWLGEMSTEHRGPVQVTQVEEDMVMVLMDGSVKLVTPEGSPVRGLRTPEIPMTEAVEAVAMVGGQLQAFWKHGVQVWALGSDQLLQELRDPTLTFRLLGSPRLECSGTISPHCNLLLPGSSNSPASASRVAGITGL

SMILES | Ki [1, 3] [nM] | IC50 [2, 4] [nM] | Ki ([1]; HPK1 mobility shift assay) [nM] | IC50 [2, 5] [nM]
CC[C@H](CC(F)(F)F)n1cnnc1-c1cccc(N2Cc3c(cc(N(C)C)nc3CNC)C2=O)n1 (single isomer, unassigned) [Example 19, 6-(dimethylamino)-4-[(methylamino)methyl]-2-(6-{4-[(3ξ)-1,1,1-trifluoropentan-3-yl]-4H-1,2,4-triazol-3-yl}pyridin-2-yl)-2,3-dihydro-1H-pyrrolo[3,4-c]pyridin-1-one] | 6.9 | > 10000 | – | –
CC[C@H](CC(F)(F)F)n1cnnc1-c1cccc(N2Cc3c(cc(C(C)(C)C)nc3CNC)C2=O)n1 (single isomer, unassigned) [Example 51, 6-tert-butyl-4-[(methylamino)methyl]-2-(6-{4-[(3ξ)-1,1,1-trifluoropentan-3-yl]-4H-1,2,4-triazol-3-yl}pyridin-2-yl)-2,3-dihydro-1H-pyrrolo[3,4-c]pyridin-1-one] | 7.1 | 1520 | – | –
CC[C@@H](CC(F)(F)F)n1cnnc1-c1cccc(N2Cc3c(cc(N(C)C(C)C)nc3CNC)C2=O)n1 (single isomer, unassigned) [Example 72, 4-[(methylamino)methyl]-6-[methyl(propan-2-yl)amino]-2-(6-{4-[(3ξ)-1,1,1-trifluoropentan-3-yl]-4H-1,2,4-triazol-3-yl}pyridin-2-yl)-2,3-dihydro-1H-pyrrolo[3,4-c]pyridin-1-one] | – | – | 4.48 | 1020
CC[C@H](CC(F)(F)F)n1cnnc1-c1cccc(N2Cc3c(cc(N(C)C(C)C)nc3CNC)C2=O)n1 (single isomer, unassigned) [Example 73, 4-[(methylamino)methyl]-6-[methyl(propan-2-yl)amino]-2-(6-{4-[(3ξ)-1,1,1-trifluoropentan-3-yl]-4H-1,2,4-triazol-3-yl}pyridin-2-yl)-2,3-dihydro-1H-pyrrolo[3,4-c]pyridin-1-one] | – | – | 0.22 | 61
CNCc1nc(N(C)C)cc2c1CN(c1cccc(-c3nncn3C(C)C)n1)C2=O [Example 1, 6-(dimethylamino)-4-[(methylamino)methyl]-2-{6-[4-(propan-2-yl)-4H-1,2,4-triazol-3-yl]pyridin-2-yl}-2,3-dihydro-1H-pyrrolo[3,4-c]pyridin-1-one] | 0.15 | 112 | – | –
CNCc1nc(N2CCC2)cc2c1CN(c1cccc(-c3nncn3C(C)C)n1)C2=O [Example 2, 6-(azetidin-1-yl)-4-[(methylamino)methyl]-2-{6-[4-(propan-2-yl)-4H-1,2,4-triazol-3-yl]pyridin-2-yl}-2,3-dihydro-1H-pyrrolo[3,4-c]pyridin-1-one] | 0.28 | 86 | – | –
CCN(CC)c1cc2c(c(CNC)n1)CN(c1cccc(-c3nncn3C(C)C)n1)C2=O [Example 4, 6-(diethylamino)-4-[(methylamino)methyl]-2-{6-[4-(propan-2-yl)-4H-1,2,4-triazol-3-yl]pyridin-2-yl}-2,3-dihydro-1H-pyrrolo[3,4-c]pyridin-1-one] | 0.39 | 106 | – | –
CNCc1nc(C2CC2)cc2c1CN(c1cccc(-c3nncn3C(C)C)n1)C2=O [Example 5, 6-cyclopropyl-4-[(methylamino)methyl]-2-{6-[4-(propan-2-yl)-4H-1,2,4-triazol-3-yl]pyridin-2-yl}-2,3-dihydro-1H-pyrrolo[3,4-c]pyridin-1-one] | 0.39 | 186 | – | –
CNCc1nc(N(C)C(C)C)cc2c1CN(c1cccc(-c3nncn3C(C)C)n1)C2=O [Example 6, 4-[(methylamino)methyl]-6-[methyl(propan-2-yl)amino]-2-{6-[4-(propan-2-yl)-4H-1,2,4-triazol-3-yl]pyridin-2-yl}-2,3-dihydro-1H-pyrrolo[3,4-c]pyridin-1-one] | 0.13 | 39 | – | –
CNCc1nc(C2(C)CC2)cc2c1CN(c1cccc(-c3nncn3C(C)C)n1)C2=O [Example 7, 4-[(methylamino)methyl]-6-(1-methylcyclopropyl)-2-{6-[4-(propan-2-yl)-4H-1,2,4-triazol-3-yl]pyridin-2-yl}-2,3-dihydro-1H-pyrrolo[3,4-c]pyridin-1-one] | 1.46 | 730 | – | –
CNCc1nc(N2[C@H](C)CC[C@H]2C)cc2c1CN(c1cccc(-c3nncn3C(C)C)n1)C2=O [Example 8, 6-[(2R,5R)-2,5-dimethylpyrrolidin-1-yl]-4-[(methylamino)methyl]-2-{6-[4-(propan-2-yl)-4H-1,2,4-triazol-3-yl]pyridin-2-yl}-2,3-dihydro-1H-pyrrolo[3,4-c]pyridin-1-one] | 0.25 | 89 | – | –
CCN(CC)c1cc2c(c(CNC)n1)CN(c1cccc(-c3nncn3CC)n1)C2=O [Example 9, 6-(diethylamino)-2-[6-(4-ethyl-4H-1,2,4-triazol-3-yl)pyridin-2-yl]-4-[(methylamino)methyl]-2,3-dihydro-1H-pyrrolo[3,4-c]pyridin-1-one] | 0.27 | 88 | – | –
CNCc1nc(N(C)C)cc2c1CN(c1cccc(N3C(=O)OC[C@@H]3C)n1)C2=O [Example 10, 6-(dimethylamino)-4-[(methylamino)methyl]-2-{6-[(4S)-4-methyl-2-oxo-1,3-oxazolidin-3-yl]pyridin-2-yl}-2,3-dihydro-1H-pyrrolo[3,4-c]pyridin-1-one] | 0.26 | 97.6 | – | –
CC(C)c1[nH]ncc1-c1cccc(N2Cc3c(cc(N(C)C)nc3CN)C2=O)n1 [Example 11, 4-(aminomethyl)-6-(dimethylamino)-2-{6-[5-(propan-2-yl)-1H-pyrazol-4-yl]pyridin-2-yl}-2,3-dihydro-1H-pyrrolo[3,4-c]pyridin-1-one] | 0.09 | 159 | – | –
CC(C)n1cnnc1-c1cccc(N2Cc3c(cc(N(C)C)nc3CN)C2=O)n1 [Example 12, 4-(aminomethyl)-6-(dimethylamino)-2-{6-[4-(propan-2-yl)-4H-1,2,4-triazol-3-yl]pyridin-2-yl}-2,3-dihydro-1H-pyrrolo[3,4-c]pyridin-1-one] | 0.2 | 155 | – | –
C[C@@H](CC(F)(F)F)n1cnnc1-c1cccc(N2Cc3c(cc(N(C)C)nc3CN)C2=O)n1 [Example 13, 4-(aminomethyl)-6-(dimethylamino)-2-(6-{4-[(2S)-4,4,4-trifluorobutan-2-yl]-4H-1,2,4-triazol-3-yl}pyridin-2-yl)-2,3-dihydro-1H-pyrrolo[3,4-c]pyridin-1-one] | < 0.08 | 85 | – | –
CC[C@H](C)n1cnnc1-c1cccc(N2Cc3c(cc(N(C)C)nc3CNC)C2=O)n1 [Example 14, 2-(6-{4-[(2S)-butan-2-yl]-4H-1,2,4-triazol-3-yl}pyridin-2-yl)-6-(dimethylamino)-4-[(methylamino)methyl]-2,3-dihydro-1H-pyrrolo[3,4-c]pyridin-1-one] | 0.17 | 102 | – | –
CN(C)c1cc2c(c(CN)n1)CN(c1cccc(-c3nncn3CC3CC3)n1)C2=O [Example 16, 4-(aminomethyl)-2-{6-[4-(cyclopropylmethyl)-4H-1,2,4-triazol-3-yl]pyridin-2-yl}-6-(dimethylamino)-2,3-dihydro-1H-pyrrolo[3,4-c]pyridin-1-one] | 0.56 | 358 | – | –
CNCc1nc(N(C)C)cc2c1CN(c1cccc(-c3nncn3[C@@H](C)CC(F)(F)F)n1)C2=O [Example 17, 6-(dimethylamino)-4-[(methylamino)methyl]-2-(6-{4-[(2S)-4,4,4-trifluorobutan-2-yl]-4H-1,2,4-triazol-3-yl}pyridin-2-yl)-2,3-dihydro-1H-pyrrolo[3,4-c]pyridin-1-one] | < 0.05 | 70 | – | –
CCn1cnnc1-c1cccc(N2Cc3c(cc(N(C)C)nc3CNC)C2=O)n1 [Example 20, 6-(dimethylamino)-2-[6-(4-ethyl-4H-1,2,4-triazol-3-yl)pyridin-2-yl]-4-[(methylamino)methyl]-2,3-dihydro-1H-pyrrolo[3,4-c]pyridin-1-one] | 2.8 | 158 | – | –
CNCc1nc(N(C)C)cc2c1CN(c1cccc(-c3nncn3CC3CC3)n1)C2=O [Example 21, 2-{6-[4-(cyclopropylmethyl)-4H-1,2,4-triazol-3-yl]pyridin-2-yl}-6-(dimethylamino)-4-[(methylamino)methyl]-2,3-dihydro-1H-pyrrolo[3,4-c]pyridin-1-one] | 0.62 | 245 | – | –
CNCc1nc(N(C)C)cc2c1CN(c1ccc(F)c(-c3cn[nH]c3C(C)C)n1)C2=O [Example 22, 6-(dimethylamino)-2-{5-fluoro-6-[5-(propan-2-yl)-1H-pyrazol-4-yl]pyridin-2-yl}-4-[(methylamino)methyl]-2,3-dihydro-1H-pyrrolo[3,4-c]pyridin-1-one] | 0.4 | 105 | – | –
C[C@H]1COC(=O)N1c1cccc(N2Cc3c(cc(C4CC4)nc3CN)C2=O)n1 [Example 26, 4-(aminomethyl)-6-cyclopropyl-2-{6-[(4S)-4-methyl-2-oxo-1,3-oxazolidin-3-yl]pyridin-2-yl}-2,3-dihydro-1H-pyrrolo[3,4-c]pyridin-1-one] | 0.9 | 439 | – | –
